Laboratory results from PMC9285603, “Flavan‐3‐ol Microbial Metabolites Modulate Proteolysis in Neuronal Cells Reducing Amyloid‐beta (1‐42) Levels” (Molecular Nutrition & Food Research, 2021).
Like-named read-outs stand apart in the source and are kept apart here.

Assays:
20S proteasome = molecular target: T1, 20S proteasome (Homo sapiens, UniProt P28072+P28074+Q99436); assay: 20S proteasome activity in cell lysates (fluorimetric); type: cell-based; conditions: cellular lysates, 1 and 5 µM, 6 and 24 h
T1 construct: The incubation mixture contained 1 µg of cell lysate, the appropriate substrate; endogenous in cells; host or cells: SH-SY5Y (control, APPwt- and APPmut-transfected); only APP is transfected, the proteasome is endogenous
T1 sequence (P28074 60-263): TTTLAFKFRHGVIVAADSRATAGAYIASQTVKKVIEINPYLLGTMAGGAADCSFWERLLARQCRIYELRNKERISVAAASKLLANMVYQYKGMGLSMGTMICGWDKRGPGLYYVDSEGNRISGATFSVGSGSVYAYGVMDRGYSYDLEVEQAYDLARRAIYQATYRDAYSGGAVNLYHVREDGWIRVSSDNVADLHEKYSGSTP
T1 sequence (Q99436 44-277): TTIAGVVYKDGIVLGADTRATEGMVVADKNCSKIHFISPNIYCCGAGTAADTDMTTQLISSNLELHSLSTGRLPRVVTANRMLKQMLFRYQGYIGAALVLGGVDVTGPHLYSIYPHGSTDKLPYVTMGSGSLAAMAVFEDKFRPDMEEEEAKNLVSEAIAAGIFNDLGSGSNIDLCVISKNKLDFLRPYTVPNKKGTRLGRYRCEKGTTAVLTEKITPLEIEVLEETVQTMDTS
T1 sequence (P28072 1-239): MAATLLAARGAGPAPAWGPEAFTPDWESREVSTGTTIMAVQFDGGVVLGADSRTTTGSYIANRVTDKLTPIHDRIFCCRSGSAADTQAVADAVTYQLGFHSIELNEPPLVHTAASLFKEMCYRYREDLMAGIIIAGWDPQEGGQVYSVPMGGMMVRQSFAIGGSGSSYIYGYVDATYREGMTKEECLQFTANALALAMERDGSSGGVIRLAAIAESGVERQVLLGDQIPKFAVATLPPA
Procedure: (§1) Cell viability was evaluated with the 3‐(4,5‐dimethylthiazol‐2‐yl)‐2,5‐diphenyltetrazolium bromide assay (MTT).^[ [25] ^] Upon 6 h and 24 h treatment with increasing concentrations (0‐10 µM) of C1, C2, and C3 dissolved in DMSO, cells were washed in PBS, pH 7.5, and then MTT (final concentration 0.5 mg mL^−1) was added to the culture medium without FBS and incubated for 2 h at 37 °C. The medium was then removed and replaced with 100 µL of DMSO. The optical density was measured at 550 nm in a microtiter plate reader. At least six cultures were utilized for each time point. […] Protein concentration was determined by the method of Bradford using bovine serum albumin (BSA) as standard.^[ [26] ^]
(§2) The effects on the proteasome system were evaluated through fluorimetric assays, as previously reported,^[ [27] ^] using the following synthetic substrates: Leu‐Leu‐Val‐Tyr‐AMC for ChT‐L, Leu‐Ser‐Thr‐Arg‐AMC for T‐L, Leu‐Leu‐Glu‐AMC for PGPH, and Gly‐Pro‐Ala‐Leu‐Ala‐AMC for BrAAP, whose test is performed with the addition of the aminopeptidase‐N (AP‐N). […] Incubation was performed at 37 °C, and after 60 min, the fluorescence of the hydrolyzed 7‐amino‐4‐methyl‐coumarin (AMC) was recorded (AMC, λexc = 365 nm, λem = 449 nm) on a SpectraMax Gemini XPS microplate reader. […] The fluorescence values of lysates were subtracted of the values of control assays in the presence of the two inhibitors.

Aβ(1‐42) = assay: Quantification of Aβ(1‐42) by ELISA in medium and cellular extracts; type: cell-based, human; conditions: 24 h, 5 µM
Procedure: Levels of Aβ(1‐42) secreted into the medium and present in cellular extracts were determined after PVLs treatment using the Human Aβ42 solid‐phase sandwich ELISA Kit from Invitrogen, following the manufacturer's instructions. For Aβ quantification in cell medium, culture medium was collected after neuronal cells treatment, centrifuged at 300 × g for 10 min to remove non adherent cells and debris and then treated with protease inhibitors.

20S immunoproteasome = molecular target: T2, 20S immunoproteasome (Bos taurus, UniProt Q3SZC2+Q3T0T1+Q3T112); assay: In vitro activity assays on isolated immunoproteasome (fluorogenic peptides); type: biochemical; conditions: isolated 20S from bovine thymus
T2 construct: isolated constitutive and immunoproteasomes purified from bovine brain and thymus, respectively; from tissue; host or cells: bovine thymus
Procedure: (§3) PVLs effects on the 20S constitutive and immunoproteasome peptidase activities were measured through in vitro assays performed with fluorogenic peptides as substrates. Isolation and purification of the 20S proteasome from bovine brain and thymus were performed as previously reported.^[ [23] ^] The incubation mixture contained the compound at concentrations ranging from 0.0 to 10 µM, 1 µg of the isolated 20S proteasome, the appropriate substrate (5 µM final concentration), and 50 mm Tris/HCl (pH 8.0), up to a final volume of 100 µL. Purified proteasomes were always preincubated with each compound at 37°C for 30 min before the fluorogenic peptide substrates were added to the reaction mixture. Final incubation was performed at 37°C, and after 60 min the fluorescence of the hydrolyzed 7‐amino‐4‐methyl‐coumarin (AMC) and 4‐aminobenzoic acid (pAB) was detected (AMC, λexc = 365 nm, λem = 449 nm; pAB, λexc = 304 nm, λem = 664 nm) on a SpectraMax Gemini XPS microplate reader.
(§4) PVLs were first tested on isolated constitutive and immunoproteasomes purified from bovine brain and thymus, respectively. The constitutive 20S proteasome is a barrel‐shaped complex of four stacked rings, made of seven α subunits in the two outer rings and seven β subunits in the two inner rings, the latter bearing the catalytically active sites in the β1, β2, and β5 subunits. Treatment with inflammatory cytokines induces the transcription of three additional active subunits, known as β1i, β2i, and β5i, that replace constitutive homologues during proteasome assembly.^[ [28] ^] Proteasome proteolytic activities depend on the hydroxyl group of the N‐terminal threonine (Thr‐1) residue, responsible for cleaving peptides through a nucleophilic attack.^[ [29] ^]

LC3II and p62 = assay: Western blot of autophagy markers (LC3II, p62); type: cell-based, human; conditions: APPwt cells
Procedure: (§5) Cell viability was evaluated with the 3‐(4,5‐dimethylthiazol‐2‐yl)‐2,5‐diphenyltetrazolium bromide assay (MTT).^[ [25] ^] Upon 6 h and 24 h treatment with increasing concentrations (0‐10 µM) of C1, C2, and C3 dissolved in DMSO, cells were washed in PBS, pH 7.5, and then MTT (final concentration 0.5 mg mL^−1) was added to the culture medium without FBS and incubated for 2 h at 37 °C. The medium was then removed and replaced with 100 µL of DMSO. The optical density was measured at 550 nm in a microtiter plate reader. At least six cultures were utilized for each time point. Neuroblastoma cells, control and transfected cells, were then treated with C1, C2, and C3 for 6 and 24 h at the concentrations 0–1–5 µM. Compounds were dissolved in DMSO and then added to cell culture media. Control cells were included in each time point. After removing the medium and washing with cold phosphate buffered saline (PBS), cells were harvested in 4 mL of PBS and centrifuged at 1600 × g for 5 min. The pellet was resuspended in lysis buffer (20 mM Tris, pH 7.4, 250 mM sucrose, 1 mM EDTA, and 5 mM β‐mercaptoethanol) and passed through a 29‐gauge needle at least ten times. Lysates were centrifuged at 12 000×g for 15 min and the supernatants were stored at ‐80°C until use. Protein concentration was determined by the method of Bradford using bovine serum albumin (BSA) as standard.^[ [26] ^]
Proteins were resolved on SDS–PAGE and electroblotted onto PVDF membranes. Membranes with transferred proteins were incubated with the primary monoclonal antibody and successively with the specific peroxidase conjugated secondary antibody. Monoclonal antibodies against Ub and p27 were obtained from Santa Cruz Biotechnology, Inc. (Heidelberg, Germany). SQSTM1/p62 (sequestosome 1, herein p62) mouse monoclonal antibody was from Sigma‐Aldrich S.r.L. (Milano, Italy) and the anti‐LC3B antibody was purchased from Cell Signaling Technology, Inc. The immunoblot detection was performed with ECL Western blotting detection reagents using a ChemiDoc MP system. […] Immunoblot images were quantified using ImageJ 1.52p software (NIH, USA).

[1] = molecular target: T3, constitutive 20S proteasome (Bos taurus, UniProt Q2TBP0+Q32KL2+Q3MHN0); assay: In vitro activity assays on isolated constitutive 20S proteasome (fluorogenic peptides); type: biochemical; conditions: isolated 20S from bovine brain
T3 construct: isolated constitutive and immunoproteasomes purified from bovine brain and thymus, respectively; from tissue; host or cells: bovine brain
Procedure: as §3, §4

Cathepsin B = molecular target: T4, Cathepsin B (Homo sapiens, UniProt P07858); assay: Cathepsin B activity in cell lysates (Z‐Arg‐Arg‐AMC); type: cell-based; conditions: APPmut cells, 6 h treatment
T4 construct: The mixture for cathepsin B, containing 1 µg of cell lysate; endogenous in cells; host or cells: SH-SY5Y (control, APPwt- and APPmut-transfected)
Procedure: as §5
Cathepsin B proteolytic activity was measured using the fluorogenic peptide Z‐Arg‐Arg‐AMC at a final concentration of 50 µM, as previously described.^[ [24] ^] The mixture for cathepsin B, containing 1 µg of cell lysate, was pre‐incubated in 100 mM phosphate buffer pH 6.0, 1 mM EDTA, and 2 mM dithiothreitol for 5 min at 30°C. Upon the addition of the substrate, the mixture was incubated for 15 min at 30°C. The fluorescent signal released by the hydrolyzed 7‐amino‐4‐methyl‐coumarin (AMC, λexc = 365 nm, λem = 449 nm) was detected on a SpectraMax Gemini XPS microplate reader.

[2] = tested on: ubiquitin‐protein conjugates and p27; assay: Western blot of proteasome substrates (ubiquitin‐protein conjugates, p27); type: cell-based, human
Procedure: as §5
Proteins were resolved on SDS–PAGE and electroblotted onto PVDF membranes. Membranes with transferred proteins were incubated with the primary monoclonal antibody and successively with the specific peroxidase conjugated secondary antibody. Monoclonal antibodies against Ub and p27 were obtained from Santa Cruz Biotechnology, Inc. (Heidelberg, Germany). SQSTM1/p62 (sequestosome 1, herein p62) mouse monoclonal antibody was from Sigma‐Aldrich S.r.L. (Milano, Italy) and the anti‐LC3B antibody was purchased from Cell Signaling Technology, Inc. The immunoblot detection was performed with ECL Western blotting detection reagents using a ChemiDoc MP system. Each gel was loaded with molecular weight markers in the range of 12 to 225 kDa (GE Healthcare). Glyceraldehyde‐3‐phosphate dehydrogenase (GAPDH) was utilized as a control for equal protein loading: membranes were stripped and re‐probed with anti‐GAPDH monoclonal antibody (Santa Cruz Biotechnology, Heidelberg, Germany). Stripping buffer contained 200 mM glycine, 0.1% SDS, and 1% Tween 20. Immunoblot images were quantified using ImageJ 1.52p software (NIH, USA).

[3] = tested on: SH‐SY5Y control and transfected cells; assay: MTT cell viability assay; type: cell-based, human; conditions: 24 h exposure, 10 µM, data not shown
Procedure: as §5

26S proteasome = molecular target: T5, 26S proteasome (Homo sapiens, UniProt P28074); assay: 26S proteasome ChT‐L activity in cell lysates (fluorimetric); type: cell-based; conditions: cellular lysates, 24‐h exposure; versus untreated cells
T5 construct: ChT‐L activity of the 26S proteasome measured in control and transfected SH‐SY5Y cells; endogenous in cells; host or cells: SH-SY5Y (control, APPwt- and APPmut-transfected)
T5 sequence (P28074 60-263): T1 sequence (P28074 60-263)
Procedure: as §1, §2

[4] = 30 min preincubation, 37°C, read-out: IC50 ChT‐L Immunoproteasome
[5] = read-out: IC50 BrAAP Immunoproteasome
[6] = read-out: IC50 PGPH Immunoproteasome
[7] = read-out: IC50 T‐L Immunoproteasome
[8] = 30 min preincubation, 37°C, read-out: IC50 ChT‐L Constitutive proteasome
[9] = read-out: IC50 BrAAP Constitutive proteasome
[10] = read-out: IC50 PGPH Constitutive proteasome
[11] = read-out: IC50 T‐L Constitutive proteasome
[12] = 6 h exposure, control and transfected SH‐SY5Y cells
[13] = 24 h treatment, mainly in APPmut cells exposed to C1

proteasome inhibition, comparison among the three tested compounds (20S proteasome)	IC50 (20S immunoproteasome; [4]) [nM]	IC50 (20S immunoproteasome; [5]) [nM]	IC50 (20S immunoproteasome; [6]) [nM]	IC50 (20S immunoproteasome; [7]) [nM]	IC50 [1, 8] [nM]	IC50 [1, 9] [nM]	IC50 [1, 10] [nM]	IC50 [1, 11] [nM]	inhibition at 5 µM (Cathepsin B) [%]	ChT‐L residual activity, 26S proteasome (26S proteasome) [%]	SMILES	Aβ(1‐42) levels (Aβ(1‐42); APPwt cells)	levels of LC3II (LC3II and p62; 6 h)	levels of Ub‐conjugates and p27 [2, 12]	levels of Ub‐conjugates and p27 [2, 13]	number of APPmut viable cells (MTT) [3]	reduction of Aβ(1‐42) in cell extracts (Aβ(1‐42); APPmut cells) [%]	reduction of Aβ(1‐42) in cell medium (Aβ(1‐42); APPmut cells) [%]	p62 degradation (LC3II and p62; long‐term (24 h) exposure)
the least efficient	238 ± 16.7	61.3 ± 5.7	114 ± 19.7	334 ± 28.9	16.2 ± 1.2	256 ± 14.4	85.8 ± 7.8	87.4 ± 7.9	20		O=C1CCC(Cc2ccc(O)c(O)c2)O1 (stereo not drawn) [Compound C2, 5‐(3ʹ,4ʹ‐dihydroxyphenyl)‐γ‐valerolactone]	did not induce any change	increased	no particular effect	evident increase	minor reduction			
	1450 ± 153	88.4 ± 7	72.7 ± 5.7	588 ± 47.6	109 ± 11	302 ± 27.8	104 ± 11	56.8 ± 2.3	30	60	O=C1CCC(Cc2ccc(OS(=O)(=O)O)c(O)c2)O1 (stereo not drawn) [Compound C3, 5‐(3ʹ‐hydroxyphenyl)‐γ‐valerolactone‐4ʹ‐sulfate]			no particular effect	evident increase		35	35	favored p62 degradation
